Drawing on patent publication US20250368666A1, “INDAZOLE COMPOUNDS” (TYRA BIOSCIENCES, INC., priority 2022, published 2025), this text covers Kd and IC50 for 12 compounds.

Each structure is given as a SMILES string. Bounds are passed on as bounds.

The target of one test is T1, FGFR1 (Homo sapiens, UniProt P11362).
T1 construct: made in house; host or cells: E. coli (BL21-derived), T7 phage
The test can be described thus: Kinase binding assay (kinase-tagged T7 phage, affinity beads, qPCR), Kd. The conditions noted are these: read-out: FGFR1 (Kd nM). The essentials: (§1)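 T7 phage displaying each kinase, grown in a BL21-derived E. coli host at 32° C until lysis, competed with test compound for biotinylated ligand immobilised on streptavidin beads. Bead-bound kinase was eluted and quantified by qPCR. Kd came from an 11-point 3-fold dilution series fitted to the Hill equation with slope fixed at −1.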
(Quantitative PCR measures a nucleic acid by following its amplification.)

The target in another test is T2, FGFR2 (Homo sapiens, UniProt P21802).
T2 construct: made in house; host or cells: E. coli (BL21-derived), T7 phage
The description is as above. The note with it: read-out: FGFR2 (Kd nM). In outline: as §1

Another test has as its target T3, FGFR3 (Homo sapiens, UniProt P22607).
T3 construct: made in house; host or cells: E. coli (BL21-derived), T7 phage
The description is as above. The conditions noted are these: read-out: FGFR3 (Kd nM). In outline: as §1

A further test concerns the target T4, FGFR3 (V555M) (Homo sapiens, UniProt P22607, V555M).
T4 construct: made in house; host or cells: E. coli (BL21-derived), T7 phage
The description is as above. The note with it: V555M mutant; read-out: FGFR3 (V555M) (Kd nM). In outline: as §1

The target of another test is T5, FGFR4 (Homo sapiens, UniProt P22455).
T5 construct: made in house; host or cells: E. coli (BL21-derived), T7 phage
The description is as above. The conditions noted are these: read-out: FGFR4 (Kd nM). In outline: as §1

In test [1] the test system is KATO-III cell line (FGFR2 amplification). The test is described as follows: Cancer cell line cell viability assay (Cell Titer-Glo), 72 hr. It is filed as cell-based. The conditions noted are these: Homo sapiens, KATO III. In outline: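 5,000-20,000 cells/well o/n; cpd 9-pt 4x dil from 3 μM, n=3; 37° C/5% CO2; CTG 2.0 lumi; % DMSO ctrl; 4PL IC50.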
On the technique in general: ATP-based viability assays read luminescence as a measure of living cells.

In test [2] the test system is KG-1 cell line (FGFR 1-fusion). The test is described as above. In kind it is cell-based. The note with it: Homo sapiens, KG-1, KG-1 cell line (FGFR1-fusion). The essentials: (§2)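 Following overnight attachment, each line receives compound in triplicate across nine 4-fold dilutions starting at 3 μM, with DMSO backfill for equal solvent. Luminescence after Cell Titer-Glo 2.0 addition gives percent viability versus DMSO control, fitted by 4-parameter logistic for IC50.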

Test [3] deals with RT112/84 cell line (FGFR3-fusion). The test is described as above. The note with it: Homo sapiens, RT112/84, RT112/84 cell line (FGFR3-fusion). It is filed as cell-based. The essentials: as §2
Test [4] deals with HuH7 cell line (FGF19 amplification). The test can be described thus: Cancer cell line cell viability assay (Cell Titer-Glo), 120 hr. It is filed as cell-based. The conditions noted are these: Homo sapiens, Huh-7. In outline:
as §2

T1 sequence (P11362 22-822): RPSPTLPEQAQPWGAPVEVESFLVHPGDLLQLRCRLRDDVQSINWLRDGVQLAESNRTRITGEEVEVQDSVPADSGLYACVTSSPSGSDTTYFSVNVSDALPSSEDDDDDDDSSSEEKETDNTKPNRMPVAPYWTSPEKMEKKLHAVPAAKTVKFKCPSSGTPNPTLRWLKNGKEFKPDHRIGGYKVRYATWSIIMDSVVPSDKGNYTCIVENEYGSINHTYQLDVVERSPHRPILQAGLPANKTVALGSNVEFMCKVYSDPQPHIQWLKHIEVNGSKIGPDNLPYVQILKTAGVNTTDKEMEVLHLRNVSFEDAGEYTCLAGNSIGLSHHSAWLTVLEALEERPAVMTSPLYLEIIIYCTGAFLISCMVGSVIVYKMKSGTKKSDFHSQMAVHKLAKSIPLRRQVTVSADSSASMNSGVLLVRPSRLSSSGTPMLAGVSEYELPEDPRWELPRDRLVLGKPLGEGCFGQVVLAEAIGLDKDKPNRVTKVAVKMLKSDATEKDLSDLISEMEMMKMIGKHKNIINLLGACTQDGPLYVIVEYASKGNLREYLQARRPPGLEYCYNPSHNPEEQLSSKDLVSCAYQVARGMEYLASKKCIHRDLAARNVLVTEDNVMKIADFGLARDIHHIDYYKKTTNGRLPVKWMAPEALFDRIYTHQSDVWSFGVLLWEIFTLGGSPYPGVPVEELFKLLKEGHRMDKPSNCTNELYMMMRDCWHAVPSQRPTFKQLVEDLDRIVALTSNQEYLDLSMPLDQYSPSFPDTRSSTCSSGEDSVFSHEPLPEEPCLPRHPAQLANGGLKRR
T5 sequence (P22455 22-802): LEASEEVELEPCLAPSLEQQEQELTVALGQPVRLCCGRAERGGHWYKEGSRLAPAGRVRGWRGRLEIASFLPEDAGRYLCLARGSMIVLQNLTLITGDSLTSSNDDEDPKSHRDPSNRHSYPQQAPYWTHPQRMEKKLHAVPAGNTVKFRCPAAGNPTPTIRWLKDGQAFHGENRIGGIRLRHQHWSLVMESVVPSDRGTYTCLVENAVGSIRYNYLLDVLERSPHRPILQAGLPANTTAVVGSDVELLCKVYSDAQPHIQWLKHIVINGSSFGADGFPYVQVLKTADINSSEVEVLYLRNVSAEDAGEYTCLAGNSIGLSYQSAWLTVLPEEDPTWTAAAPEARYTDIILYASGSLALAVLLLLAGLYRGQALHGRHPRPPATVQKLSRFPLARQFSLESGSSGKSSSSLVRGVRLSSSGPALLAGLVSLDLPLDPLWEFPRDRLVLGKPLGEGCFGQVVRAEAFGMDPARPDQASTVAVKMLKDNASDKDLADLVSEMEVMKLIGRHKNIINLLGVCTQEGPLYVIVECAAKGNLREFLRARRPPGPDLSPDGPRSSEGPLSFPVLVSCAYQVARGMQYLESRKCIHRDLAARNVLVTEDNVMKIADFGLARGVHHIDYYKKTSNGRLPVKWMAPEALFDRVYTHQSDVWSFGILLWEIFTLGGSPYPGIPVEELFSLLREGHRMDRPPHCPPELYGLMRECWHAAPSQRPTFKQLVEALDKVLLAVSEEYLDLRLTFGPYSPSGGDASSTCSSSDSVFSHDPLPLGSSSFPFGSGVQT
T2 sequence (P21802 22-821): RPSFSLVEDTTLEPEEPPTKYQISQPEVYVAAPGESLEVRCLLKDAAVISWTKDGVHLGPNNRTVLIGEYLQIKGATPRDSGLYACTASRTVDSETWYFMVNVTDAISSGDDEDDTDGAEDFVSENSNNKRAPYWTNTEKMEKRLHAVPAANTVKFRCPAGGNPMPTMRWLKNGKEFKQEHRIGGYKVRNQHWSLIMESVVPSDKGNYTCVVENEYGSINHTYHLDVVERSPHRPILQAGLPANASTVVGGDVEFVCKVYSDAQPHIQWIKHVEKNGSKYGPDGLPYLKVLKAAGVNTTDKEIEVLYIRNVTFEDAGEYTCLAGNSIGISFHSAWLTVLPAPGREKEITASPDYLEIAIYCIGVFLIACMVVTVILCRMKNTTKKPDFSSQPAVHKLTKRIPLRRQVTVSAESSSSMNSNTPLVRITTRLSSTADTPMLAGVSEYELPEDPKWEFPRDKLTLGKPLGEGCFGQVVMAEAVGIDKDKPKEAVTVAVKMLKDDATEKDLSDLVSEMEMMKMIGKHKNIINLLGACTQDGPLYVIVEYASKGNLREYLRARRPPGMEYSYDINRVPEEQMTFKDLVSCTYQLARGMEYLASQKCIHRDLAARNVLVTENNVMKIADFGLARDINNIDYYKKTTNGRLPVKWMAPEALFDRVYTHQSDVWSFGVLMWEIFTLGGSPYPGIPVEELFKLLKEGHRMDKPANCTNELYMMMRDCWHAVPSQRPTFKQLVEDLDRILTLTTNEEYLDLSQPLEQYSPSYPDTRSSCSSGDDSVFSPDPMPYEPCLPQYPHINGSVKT
T3 sequence (P22607 23-806): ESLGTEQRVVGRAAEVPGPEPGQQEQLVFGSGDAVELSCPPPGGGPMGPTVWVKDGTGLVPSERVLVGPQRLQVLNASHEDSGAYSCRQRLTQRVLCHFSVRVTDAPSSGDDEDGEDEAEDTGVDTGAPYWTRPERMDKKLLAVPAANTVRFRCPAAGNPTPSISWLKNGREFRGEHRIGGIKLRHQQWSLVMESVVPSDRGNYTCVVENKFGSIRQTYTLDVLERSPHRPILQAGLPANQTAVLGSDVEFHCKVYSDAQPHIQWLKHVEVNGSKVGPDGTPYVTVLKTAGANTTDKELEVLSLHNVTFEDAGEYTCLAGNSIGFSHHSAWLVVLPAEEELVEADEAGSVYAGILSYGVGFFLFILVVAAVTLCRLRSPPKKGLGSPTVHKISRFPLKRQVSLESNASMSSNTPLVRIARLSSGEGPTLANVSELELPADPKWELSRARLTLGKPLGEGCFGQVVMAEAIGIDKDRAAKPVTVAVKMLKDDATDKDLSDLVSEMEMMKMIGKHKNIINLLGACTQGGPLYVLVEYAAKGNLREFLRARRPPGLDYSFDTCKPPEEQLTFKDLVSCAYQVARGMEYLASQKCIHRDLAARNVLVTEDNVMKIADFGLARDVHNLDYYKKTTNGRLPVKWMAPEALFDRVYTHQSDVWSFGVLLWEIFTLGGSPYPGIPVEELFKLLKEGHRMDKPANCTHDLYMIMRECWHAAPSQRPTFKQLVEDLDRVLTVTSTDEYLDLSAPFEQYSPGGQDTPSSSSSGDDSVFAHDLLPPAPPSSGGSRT
T4 sequence (P22607 23-806 V555M): as the sequence (P22607 23-806) above, with V533M counted along it

As for `C[C@@H](Oc1ccc2[nH]nc(-c3cnc(N4CC(C)(N5CCP(C)(=O)CC5)C4)c(C#N)c3)c2c1)c1c(Cl)cncc1Cl` [Example 328, (R)-5-(5-(1-(3,5-dichloropyridin-4-yl)ethoxy)-1H-indazol-3-yl)-2-(3-methyl-3-(4-methyl-4-oxido-1,4-azaphosphinan-1-yl)azetidin-1-yl)nicotinonitrile], the dissociation constant Kd at FGFR1, at FGFR2, on FGFR3, at FGFR3 (V555M) and on FGFR4 was 1 to 50 nM each time. The IC50 (as a rule, the midpoint of a concentration-inhibition curve) in test [1] is 200 to 1000 nM; in test [2], more than 1000 nM; in test [3] it was 50 to 200 nM; in test [4], 50 to 200 nM.
In the case of `C[C@@H](Oc1ccc2[nH]nc(-c3cnc(N4CC(C)(N5CCOCC5)C4)nc3)c2c1)c1c(Cl)cncc1Cl` [Example 43, (R)-4-(1-(5-(5-(1-(3,5-dichloropyridin-4-yl)ethoxy)-1H-indazol-3-yl)pyrimidin-2-yl)-3-methylazetidin-3-yl)morpholine], the Kd on FGFR1, on FGFR2, on FGFR3, on FGFR3 (V555M) and at FGFR4 was 1 to 50 nM throughout. Besides, the half-maximal inhibitory concentration (IC50) in test [1] was in the range of 50 to 200 nM; in test [2], 50 to 200 nM; in test [3], 0.1 to 50 nM; in [4] it was 0.1 to 50 nM.
Consider `C[C@@H](Oc1ccc2[nH]nc(-c3cnc(N4CC(C)(NCC5CC5)C4)c(C#N)c3)c2c1)c1c(Cl)cncc1Cl` [Example 27, 2-[3-(Cyclopropylmethylamino)-3-methyl-azetidin-1-yl]-5-[5-[(1R)-1-(3,5-dichloro-4-pyridyl)ethoxy]-1H-indazol-3-yl]pyridine-3-carbonitrile], for which the Kd (in general, the constant that tells how readily two partners part at equilibrium) at FGFR1 fell in the range of 1 to 50 nM; at FGFR2, 50 to 300 nM; at FGFR3 it was 1 to 50 nM; at FGFR3 (V555M), 1 to 50 nM; at FGFR4 it was 1 to 50 nM. Moreover, the IC50 was in the range of 200 to 1000 nM in test [1], 200 to 1000 nM in test [2], 50 to 200 nM in [3] and 50 to 200 nM in [4].
Take `COc1cc2[nH]nc(-c3cnc(N4CC(C)(N5C[C@H]6C[C@@H]5CO6)C4)c(C#N)c3)c2cc1O[C@H](C)c1c(Cl)cncc1Cl` [Example 338, 2-(3-((1R,4R)-2-oxa-5-aza-bicyclo[2.2.1]hep-tan-5-yl)-3-methylazetidin-1-yl)-5-(5-((R)-1-(3,5-dichloropyridin-4-yl)ethoxy)-6-methoxy-1H-indazol-3-yl)nicotinonitrile]: the Kd on FGFR1, on FGFR2, at FGFR3, on FGFR3 (V555M) and at FGFR4 was 1 to 50 nM each time. Also, the IC50 in test [1] lay within 50 to 200 nM; in test [2] it was 50 to 200 nM; in test [3], 0.1 to 50 nM; in test [4], 0.1 to 50 nM.
In the case of `COc1cc2[nH]nc(-c3cnc(N4CC(C)(N5CC6CC(C5)O6)C4)c(C#N)c3)c2cc1O[C@H](C)c1c(Cl)cncc1Cl` [Example 337, 2-(3-(6-oxa-3-aza-bicyclo[3.1.1]hep-tan-3-yl)-3-methylazetidin-1-yl)-5-(5-((R)-1-(3,5-dichloropyridin-4-yl)ethoxy)-6-methoxy-1H-indazol-3-yl)nicotinonitrile], the dissociation constant Kd on FGFR1, on FGFR2, on FGFR3, at FGFR3 (V555M) and on FGFR4 was 1 to 50 nM each time. Also, the IC50 in test [1] was 50 to 200 nM; in test [2] it was 50 to 200 nM; in [3], 0.1 to 50 nM; in test [4] it was 0.1 to 50 nM.
For `C[C@@H](Oc1ccc2[nH]nc(-c3cnc(N4CC(C)(NCCS(C)(=O)=O)C4)c(C#N)c3)c2c1)c1c(Cl)cncc1Cl` [Example 325, 5-[5-[(1R)-1-(3,5-dichloro-4-pyridyl)ethoxy]-1H-indazol-3-yl]-2-[3-methyl-3-(2-methylsulfonylethyl-amino)azetidin-1-yl]pyridine-3-carbonitrile], the Kd at FGFR1, at FGFR2, at FGFR3, on FGFR3 (V555M) and at FGFR4 was 1 to 50 nM in each case. The IC50 in test [1] is 50 to 200 nM; in test [2] it was 200 to 1000 nM; in test [3], 50 to 200 nM; in [4], 0.1 to 50 nM.
Consider `CC(C)OCCNC1(C)CN(c2ncc(-c3n[nH]c4ccc(O[C@H](C)c5c(Cl)cncc5Cl)cc34)cc2C#N)C1` [Example 98, (R)-5-(5-(1-(3,5-dichloropyridin-4-yl)ethoxy)-1H-indazol-3-yl)-2-(3-((2-isopropoxyethyl)amino)-3-methylazetidin-1-yl)nicotinonitrile], for which the Kd at FGFR1 fell in the range of 50 to 300 nM; on FGFR2, 50 to 300 nM; at FGFR3 it was 1 to 50 nM; at FGFR3 (V555M), 1 to 50 nM; on FGFR4 it was 1 to 50 nM. The IC50 in test [1] lay within 200 to 1000 nM; in [2], 200 to 1000 nM; in test [3], 50 to 200 nM; in test [4], 50 to 200 nM.
As to `C[C@@H](Oc1ccc2[nH]nc(-c3cnc(N4CC(C)(N5CCCC5)C4)c(C#N)c3)c2c1)c1c(Cl)cncc1Cl` [Example 17, (R)-5-(5-(1-(3,5-Dichloropyridin-4-yl)ethoxy)-1H-indazol-3-yl)-2-(3-methyl-3-(pyrrolidin-1-yl)azetidin-1-yl)nicotinonitrile], the Kd on FGFR1, on FGFR2, at FGFR3, on FGFR3 (V555M) and on FGFR4 was 1 to 50 nM each time. The half-inhibitory concentration (IC50) in test [1] was 200 to 1000 nM; in [2], 200 to 1000 nM; in test [3], 50 to 200 nM; in [4] it was 0.1 to 50 nM.
On to `C[C@@H](Oc1ccc2[nH]nc(-c3cnc(N4CC(C)(N[C@@H]5CCOC5)C4)c(C#N)c3)c2c1)c1c(Cl)cncc1Cl` [Example 33, 5-(5-((R)-1-(3,5-dichloropyridin-4-yl)ethoxy)-1H-indazol-3-yl)-2-(3-methyl-3-(((R)-tetrahydrofuran-3-yl)amino)azetidin-1-yl)nicotinonitrile], for which the dissociation constant (Kd) fell in the range of 50 to 300 nM at FGFR1; 1 to 50 nM on FGFR2; 1 to 50 nM at FGFR3; 1 to 50 nM at FGFR3 (V555M); 1 to 50 nM on FGFR4. The 50% inhibitory concentration (IC50) lay in the range of 50 to 200 nM in [1], 200 to 1000 nM in test [2], 50 to 200 nM in test [3] and 0.1 to 50 nM in test [4].
For `C[C@@H](Oc1ccc2[nH]nc(-c3cnc(N4CC(C)(CN(C)S(C)(=O)=O)C4)c(C#N)c3)c2c1)c1c(Cl)cncc1Cl` [Example 23, (R)-N-((1-(3-cyano-5-(5-(1-(3,5-dichloropyridin-4-yl)ethoxy)-1H-indazol-3-yl)pyridin-2-yl)-3-methylazetidin-3-yl)methyl)-N-methylmethanesulfona-mide], the Kd on FGFR1, on FGFR2, at FGFR3, on FGFR3 (V555M) and on FGFR4 was 1 to 50 nM throughout. The IC50 in test [1] lay within 200 to 1000 nM; in [2], 200 to 1000 nM; in test [3], 50 to 200 nM; in test [4], 0.1 to 50 nM.
With `CC(C)NC1(C)CN(c2ncc(-c3n[nH]c4ccc(O[C@H](C)c5c(Cl)cncc5Cl)cc34)cc2C#N)C1` [Example 48, (R)-5-(5-(1-(3,5-dichloropyridin-4-yl)ethoxy)-1H-indazol-3-yl)-2-(3-(isopropylamino)-3-methylazetidin-1-yl)nicotinonitrile], the Kd on FGFR1, at FGFR2, on FGFR3, at FGFR3 (V555M) and at FGFR4 was 1 to 50 nM in each case. Also, the IC50 fell in the range of 200 to 1000 nM in test [1], 200 to 1000 nM in [2], 50 to 200 nM in test [3] and 0.1 to 50 nM in test [4].
On to `COc1cc2[nH]nc(-c3cnc(N4CC(C)(NCC(C)C)C4)c(C#N)c3)c2cc1O[C@H](C)c1c(Cl)cncc1Cl` [Example 139, (R)-5-(5-(1-(3,5-dichloropyridin-4-yl)ethoxy)-6-methoxy-1H-indazol-3-yl)-2-(3-(isobutylamino)-3-methylazetidin-1-yl)nicotinonitrile], for which the equilibrium dissociation constant (Kd) on FGFR1, at FGFR2, on FGFR3, at FGFR3 (V555M) and on FGFR4 was 1 to 50 nM each time. Besides, the concentration for half-maximal inhibition (IC50) was 50 to 200 nM in test [1], 50 to 200 nM in test [2], 0.1 to 50 nM in test [3] and 0.1 to 50 nM in test [4].
